What is called pIC50 is the negative decadic logarithm of the IC50, by convention in mol/L. A high value points to a small IC50.

The target of the assay is T1, IRAK4 (Homo sapiens, UniProt Q9NWZ3).
T1 construct: purchased CARNA Bioscience 09-145
T1 sequence (Q9NWZ3 1-460): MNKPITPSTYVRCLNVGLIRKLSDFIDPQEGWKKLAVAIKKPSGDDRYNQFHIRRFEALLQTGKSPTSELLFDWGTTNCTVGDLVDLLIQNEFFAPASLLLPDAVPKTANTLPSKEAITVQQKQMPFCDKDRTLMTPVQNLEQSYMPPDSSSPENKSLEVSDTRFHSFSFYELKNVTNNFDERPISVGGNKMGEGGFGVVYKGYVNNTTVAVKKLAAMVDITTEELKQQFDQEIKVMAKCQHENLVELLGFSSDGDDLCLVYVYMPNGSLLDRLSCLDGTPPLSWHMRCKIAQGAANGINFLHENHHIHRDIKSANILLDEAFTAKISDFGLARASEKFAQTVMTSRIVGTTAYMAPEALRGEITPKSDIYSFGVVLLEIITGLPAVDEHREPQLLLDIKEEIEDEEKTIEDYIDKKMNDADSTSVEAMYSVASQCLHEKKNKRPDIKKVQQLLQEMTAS
Kind of assay: IRAK-4 activity inhibition assay (Caliper). The format is biochemical. The conditions noted are these: 3.5 nM IRAK4, 1.5 μM Peptide 8, 37 μM ATP, 28° C., 40 minutes. As to the method:
A 1× kinase base buffer was prepared from 50 mM HEPES, pH 7.5 and 0.0015% Brij-35. A stop buffer was prepared from 100 mM HEPES, pH 7.5, 0.015% Brij-35, 0.2% Coating Reagent #3, and 50 mM EDTA.
Test compound was diluted to 50× of the final desired highest inhibitor concentration in reaction by 100% DMSO. 100 ul of this compound dilution was transferred to a well in a 96-well plate.
Test compound was serially diluted by transferring 30 μl to 60 μl of 100% DMSO in the next well and so forth for a total of 10 concentrations. 100 μl of 100% DMSO was added to two empty wells for no compound control and no enzyme control in the same 96-well plate.
A new 96-well plate was marked as intermediate plate. 5 μl of compound serial dilution was transferred from source plate to the corresponding wells of the intermediate plate. 45 μl of 1× kinase base buffer (KB buffer) was added to each well of the intermediate plate. The intermediate plate was placed for 10 min on a shaker.
5 μl of each well was transferred from the 96-well intermediate plate to a 384-well plate in duplicates. For example, A1 of the 96-well plate is transferred to A1 and A2 of the 384-well plate. A2 of the 96-well plate is transferred to A3 and A4 of the 384-well plate, and so on.
IRAK4 and DTT in 1× kinase base buffer was added. The 2.5× enzyme mix contained 8.8 nM IRAK4 and 5 mM DTT.
Peptide 8, ATP, MgCl2 and MnCl2 were added in the 1× kinase base buffer. The 2.5× peptide mix contained 3.75 μM peptide 8, 92.5 μM ATP, 12.5 mM MgCl2 and 2.5 mM MnCl2.
Assay plate already contained 5 μl of compound in 10% DMSO. Added 10 μl of 2.5× enzyme solution to each well of the 384-well assay plate, except no enzyme control wells. The final concentration of IRAK4 in reaction was 3.5 nM. Added 10 μl of 1× kinase base buffer to no enzyme control wells in the assay plate. Incubated at room temperature for 10 min.
Added 10 μl of 2.5× peptide solution to each well of the 384-well assay plate. The final concentration of Peptide 8 and ATP was 1.5 μM and 37 μM, respectively. Incubated at 28° C. for 40 minutes. Added 25 μl of stop buffer to stop reaction. Collected data on Caliper.
Copied conversion % data from Caliper program. Converted conversion % values to percent inhibition values. Percent inhibition=(max−conversion %)/(max−min)*100, where “max” means the conversion % of DMSO control and “min” means the conversion % of no enzyme control.

Structures are written as SMILES. pIC50: −log10 of the molar value. Where a name gives a salt, the structure may show the parent alone.

`N#Cc1c[nH]c2ncnc(O[C@H]3CC[C@H](N4CCOCC4)CC3)c12` [Compound I-7, 4-(trans-(4-morpholinocyclohexyl)oxy)-7H-pyrrolo[2,3-d]pyrimidine-5-carbonitrile] showed a pIC50 of 5.00 to 6.00.
As for `Fc1c[nH]c2ncnc(O[C@H]3CC[C@H](N4CCOCC4)CC3)c12` [Compound I-6, 4-((trans)-4-((5-fluoro-7H-pyrrolo[2,3-d]pyrimidin-4-yl)oxy)cyclohexyl)morpholine], the figure is 5.00 to 6.00; as for `CN(C)[C@H]1CC[C@H](Oc2ncnc3[nH]cc(C#N)c23)CC1` [Compound I-5, 4-[[4-(dimethylamino)cyclohexyl]oxy]-7H-pyrrolo[2,3-d]pyrimidine-5-carbonitrile], 5.00 to 6.00.
The value for `CN(C)[C@H]1CC[C@H](Nc2ncnc3oc4c(c23)CCC4)CC1` [Compound I-10, N,N-dimethyl-4-N-[7-oxa-9,11-diazatricyclo[6.4.0.0[2,6]]dodeca-1(12),2(6),8,10-tetraen-12-yl]-trans-cyclohexane-1,4-diamine] was 5.00 to 6.00.
As for `N[C@H]1CC[C@H](Nc2ncnc3oc4c(c23)CCC4)CC1` [Compound I-11, N^1-(6,7-dihydro-5H-cyclopenta[4,5]furo[2,3-d]pyrimidin-4-yl)-trans-cyclohexane-1,4-diamine], the figure is no more than 5.00.
Regarding `c1nc(O[C@H]2CC[C@H](N3CCOCC3)CC2)c2ccoc2n1` [Compound I-13, 4-(((trans)-4-morpholinocyclohexyl)oxy)furo[2,3-d]pyrimidine], the pIC50 is no more than 5.00.
For `CN(C)[C@H]1CC[C@H](Nc2ncnc3[nH]cc(F)c23)CC1` [Compound I-3, (trans)-N^1-(5-fluoro-7H-pyrrolo[2,3-d]pyrimidin-4-yl)-N^4,N^4-dimethylcyclohexane-1,4-diamine], the pIC50 is 6.00 to 7.00.
As for `CN(C)[C@H]1CC[C@H](Nc2nc(N)nc3[nH]ccc23)CC1` [Compound I-8, 4-N-[4-(dimethylamino)cyclohexyl]-7H-pyrrolo[2,3-d]pyrimidine-2,4-diamine], the figure is no more than 5.00; as for `CN(C)[C@H]1CC[C@H](Nc2ncnc3[nH]cc(C#N)c23)CC1` [Compound I-1, 4-[[4-(dimethylamino)cyclohexyl]amino]-7H-pyrrolo[2,3-d]pyrimidine-5-carbonitrile], 6.00 to 7.00; as for `CN(C)[C@H]1CC[C@H](Oc2ncnc3occc23)CC1` [Compound I-14, trans-4-(furo[2,3-d]pyrimidin-4-yloxy)-N,N-dimethylcyclohexanamine formate], no more than 5.00.
As for `CN(C)[C@H]1CC[C@H](Oc2ncnc3[nH]cc(F)c23)CC1` [Compound I-4, (trans)-4-((5-fluoro-7H-pyrrolo[2,3-d]pyrimidin-4-yl)oxy)-N,N-dimethylcyclohexanamine], the figure is 5.00 to 6.00; as for `CN(C)[C@H]1CC[C@H](Nc2ncnc3occc23)CC1` [Compound I-12, N^1-(furo[2,3-d]pyrimidin-4-yl)-trans-N^4,N^4-dimethylcyclohexane-1,4-diamine formate], no more than 5.00; as for `CN(C)[C@H]1CC[C@H](Nc2nc(Nc3ccccc3)nc3[nH]ccc23)CC1` [Compound I-2, 4-N-[4-(dimethylamino)cyclohexyl]-2-N-phenyl-7H-pyrrolo[2,3-d]pyrimidine-2,4-diamine], 6.00 to 7.00.

Source of the values: patent US20140018361A1, “IRAK INHIBITORS AND USES THEREOF” (Nimbus Iris, Inc., priority 2012, published 2014).
